Holding throughout (assay): inhibition of tumour cell growth, NCI panel, 48 h
The test system of experiment [1] is ACHN.
For experiment [2], the system named is BT-549.
Experiment [3] relates to CCRF-CEM.
The test system of experiment [4] is HCT-116.
Experiment [5] relates to KM12.
Experiment [6] relates to LOX IMVI.
Experiment [7] concerns MDA-MB-231.
The test system of experiment [8] is MDA-MB-435.
Experiment [9] relates to MDA-N.
Experiment [10] concerns MOLT-4.
Experiment [11] has as its system Malme-3M.
The subject of experiment [12] is NCI-H23.
Experiment [13] deals with NCI-H522.
For experiment [14], the system named is OVCAR-8.
Experiment [15] relates to SK-MEL-5.
Experiment [16] deals with SNB-19.
In experiment [17] the test system is SNB-75.
Experiment [18] has as its system SR.
Experiment [19] has as its system SW-620.
In experiment [20] the test system is UACC-257.

Consider seven molecules from ChEMBL document CHEMBL1201862, “PubChem BioAssay data set” (2004).

Each structure is given as a SMILES string.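 Interpolation was linear, between the two tested concentrations surrounding the appropriate level; five concentrations were tested over 48 hours in 96-well plates. GI50: concentration for 50% inhibition of growth.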 The source made the active and inactive calls. Rule as the data show it: active = GI50 up to about 1.1 µM and inactive = higher.

For `CC(=O)c1[nH]c(NC(C)C)c(C(=S)Nc2ccccc2)c1N`, the GI50 was 33.3 µM (inactive) in [1]; 30.5 µM (inactive) in experiment [2]; 25.5 µM (inactive) in [3]; 24.1 µM (inactive) in experiment [4]; 29.6 µM (inactive) in experiment [5]; 19.1 µM (inactive) in experiment [6]. The GI50 was 22.3 µM (inactive) in experiment [7]; 21.7 µM (inactive) in experiment [8]; 22.1 µM (inactive) in [9]; 37.2 µM (inactive) in experiment [10]; 25.7 µM (inactive) in experiment [11]; 36 µM (inactive) in [12]. In addition, the GI50 in experiment [13] was 16.6 µM (inactive); in [14], 28.4 µM (inactive); in experiment [15] it was 18.3 µM (inactive); in [16], 27.8 µM (inactive); in [17], > 100 µM (inactive); in experiment [18], 23.7 µM (inactive). For the same molecule, the GI50 in experiment [19] was 54.1 µM (inactive); in experiment [20] it was 24 µM (inactive).

For `CNc1nc(=O)c(C#N)c(-c2ccc(C)cc2)s1`, the GI50 in experiment [1], in experiment [2], in experiment [3], in experiment [4], in experiment [5] and in experiment [6] was > 100 µM (inactive) in each case. The GI50 in [7], in experiment [8], in [9], in [10], in experiment [11] and in experiment [12] was > 100 µM (inactive) throughout. For the same molecule, the GI50 is 59.3 µM (inactive) in experiment [13]; > 100 µM (inactive) in [14]; > 100 µM (inactive) in [15]; > 100 µM (inactive) in experiment [16]; > 100 µM (inactive) in experiment [17]; > 100 µM (inactive) in [18]. Also, the GI50 in experiment [19] and in experiment [20] was > 100 µM (inactive) throughout.

`CN(C)Cc1cc(/N=N/c2ccc(Cl)cc2)cc(CN(C)C)c1O`: the GI50 in experiment [1] is 6.43 µM (inactive); in [2], 11 µM (inactive); in experiment [3], 2.1 µM (inactive); in [4], 4.85 µM (inactive); in experiment [5], 6.55 µM (inactive); in experiment [6], 3.1 µM (inactive). Also, the GI50 in experiment [7] is 7.71 µM (inactive); in experiment [8] it was 12.2 µM (inactive); in [9] it was 13.2 µM (inactive); in [10], 2.75 µM (inactive); in experiment [11] it was 14.7 µM (inactive); in experiment [12], 21.2 µM (inactive). Besides, the GI50 in experiment [13] was 1.77 µM (inactive); in experiment [14], 3.75 µM (inactive); in experiment [15] it was 8.79 µM (inactive); in experiment [16] it was 10.6 µM (inactive); in [17], 10.9 µM (inactive); in experiment [18], 4.59 µM (inactive). The figures for the GI50 in [19] and in experiment [20] were 8.09 µM (inactive) and 16.2 µM (inactive), respectively.

Regarding `O=c1c2cc3c(cc2[nH]c2ncccc12)OCO3`, the GI50 in [1], in [2], in experiment [3], in experiment [4], in experiment [5] and in experiment [6] was > 10 µM (inactive) each time. Moreover, the GI50 in experiment [7], in experiment [8], in experiment [9], in [10], in experiment [11] and in [12] was > 10 µM (inactive) each time. Also, the GI50 in experiment [13], in [14], in experiment [15], in experiment [16], in experiment [17] and in experiment [18] was > 10 µM (inactive) in each case. Further, the GI50 in experiment [19] and in experiment [20] was > 10 µM (inactive) throughout.

As to `O=[N+]([O-])/C(Cl)=C(\NCCO)C(Cl)=C(Cl)Cl`, the GI50 in experiment [1] is 89.5 µM (inactive); in experiment [2], > 79.8 µM (inactive); in experiment [3] it was 16.9 µM (inactive); in experiment [4], 45.2 µM (inactive); in experiment [5], > 89.1 µM (inactive); in [6], 70 µM (inactive). Further, the GI50 was > 64.9 µM (inactive) in experiment [7]; 55.8 µM (inactive) in [8]; 55.5 µM (inactive) in experiment [9]; 20.7 µM (inactive) in experiment [10]; 32.5 µM (inactive) in experiment [11]; 72.1 µM (inactive) in experiment [12]. For the same molecule, the GI50 is 21.7 µM (inactive) in experiment [13]; 52.8 µM (inactive) in experiment [14]; > 96.4 µM (inactive) in experiment [15]; > 100 µM (inactive) in experiment [16]; > 80.2 µM (inactive) in experiment [17]; 20.5 µM (inactive) in experiment [18]. Also, the GI50 is 41.3 µM (inactive) in experiment [19] and > 100 µM (inactive) in experiment [20].

As for `Cc1cccc(NC(=S)N/N=C(/c2ccccc2)c2ccccn2)c1`, the GI50 in experiment [1] was 0.044 µM (active); in experiment [2], 2.5 µM (inactive); in [3], < 0.01 µM (active); in experiment [4] it was < 0.0131 µM (active); in [5] it was 0.0796 µM (active); in experiment [6], 0.0224 µM (active). The GI50 in [7] is 0.0378 µM (active); in experiment [8], 0.574 µM (active); in [9] it was 0.46 µM (active); in [10], < 0.0149 µM (active); in [11], 0.174 µM (active); in experiment [12], < 0.0282 µM (active). Further, the GI50 in [13] is 1.09 µM (active); in experiment [14], 0.038 µM (active); in experiment [15], 0.108 µM (active); in [16], 3.6 µM (inactive); in experiment [17] it was 0.991 µM (active); in experiment [18] it was < 0.0144 µM (active). Moreover, the GI50 in experiment [19] was < 0.019 µM (active); in [20], < 0.0162 µM (active).

As for `C=C(C)[C@@H]1CC[C@]2(C)CC[C@]3(C)[C@H](CC[C@@H]4[C@@]5(C)CC[C@H](OC(=O)c6ccccc6)C(C)(C)[C@@H]5CC[C@]43C)[C@@H]12`, the GI50 in [1], in experiment [2], in [3], in experiment [4], in experiment [5] and in [6] was > 100 µM (inactive) in each case. Moreover, the GI50 in experiment [7], in experiment [8], in [9], in [10], in experiment [11] and in experiment [12] was > 100 µM (inactive) throughout. Further, the GI50 in experiment [13] was > 100 µM (inactive); in [14], > 100 µM (inactive); in [15] it was > 100 µM (inactive); in experiment [16], > 100 µM (inactive); in experiment [17], 90.8 µM (inactive); in experiment [18] it was 48.2 µM (inactive). For the same molecule, the GI50 in experiment [19] and in experiment [20] was > 100 µM (inactive) throughout.
